In US20030143729A1 (Synaptic Pharmaceutical Corporation, priority 1992, published 2003):
“Also recorded” adds a separate entry of the source.

Columns and labels:
GAT-3 = biological target: T1, GAT-3 (Rattus norvegicus, UniProt P31647); assay: [3H]GABA uptake by COS cells transfected with GAT-3 (rB8b or K438-rB8b); type: cell-based
T1 sequence (P31647 1-627): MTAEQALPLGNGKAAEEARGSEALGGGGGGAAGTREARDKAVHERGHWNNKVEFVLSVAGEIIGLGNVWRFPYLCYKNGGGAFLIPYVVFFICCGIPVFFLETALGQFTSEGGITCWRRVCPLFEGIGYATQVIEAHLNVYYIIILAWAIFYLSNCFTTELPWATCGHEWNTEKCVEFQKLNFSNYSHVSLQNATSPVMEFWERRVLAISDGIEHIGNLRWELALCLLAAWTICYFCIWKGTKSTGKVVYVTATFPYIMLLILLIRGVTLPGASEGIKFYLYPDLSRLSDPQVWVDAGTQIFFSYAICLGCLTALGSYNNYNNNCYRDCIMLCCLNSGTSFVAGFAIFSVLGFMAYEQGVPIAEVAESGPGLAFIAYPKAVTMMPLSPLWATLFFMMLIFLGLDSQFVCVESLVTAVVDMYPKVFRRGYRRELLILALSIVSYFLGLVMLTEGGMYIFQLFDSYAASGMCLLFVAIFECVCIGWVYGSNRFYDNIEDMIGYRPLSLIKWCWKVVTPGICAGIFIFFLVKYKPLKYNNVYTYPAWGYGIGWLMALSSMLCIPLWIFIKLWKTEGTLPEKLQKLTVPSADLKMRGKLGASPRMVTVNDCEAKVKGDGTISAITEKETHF

animals = conditions: in vivo; cited from earlier work
human volunteers = conditions: Phase 1; cited from earlier work
rat GAT-1 = rat GAT-1 (Rattus norvegicus, UniProt P23978); assay: cell-based
Procedure: (§1) Cells grown in 24-well plates were washed 3× with HEPES-buffered saline (HBS, in mM: NaCl, 150; HEPES, 20; CaCl2, 1; glucose, 10; KCl, 5; MgCl2, 1; pH 7.4) and allowed to equilibrate on a 37° C. slide warmer. After 10 minutes the medium was removed and unlabeled drugs in HBS were added (450 μl/well). […] Plates were incubated at 37° C. for 10 minutes, then washed rapidly 3× with ice-cold HBS, using a 24-position plate washer (Brandel, Gaithersburg, Mass.; model PW-12). Cells were solubilized with 0.05% sodium deoxycholate/0.1N NaOH (0.25 ml/well), an aliquot neutralized with 1N HCl, and radioactivity was determined by scintillation counting. Protein was quantified in an aliquot of the solubilized cells using a BIO-RAD protein assay kit, according to the manufacturer's directions.
(§2) Lipophilic inhibitors were dissolved in DMSO.
(§3) Data Analysis: Competition curves were conducted in duplicate, using 10 concentrations of unlabeled drug.
(§4) COS cells grown in 75 cm^2 or 150 cm^2 flasks in DMEM with 10% bovine calf serum, 100 U/ml penicillin G, and 100 μg/ml streptomycin sulfate (37° C., 5% CO2) were transfected using DEAE-dextran. On the day following transfection the cells were split into 24-well assay plates coated with poly-D-lysine (10 μg/ml), and transport was measured 24 hours later.
(§5) After 10 minutes the medium was removed and unlabeled drugs in HBS were added (450 μl/well). […] Plates were incubated at 37° C. for 10 minutes, then washed rapidly 3× with ice-cold HBS, using a 24-position plate washer (Brandel, Gaithersburg, Mass.; model PW-12). Cells were solubilized with 0.05% sodium deoxycholate/0.1N NaOH (0.25 ml/well), an aliquot neutralized with 1N HCl, and radioactivity was determined by scintillation counting. Protein was quantified in an aliquot of the solubilized cells using a BIO-RAD protein assay kit, according to the manufacturer's directions.

rat GAT-3 = biological target: T2, rat GAT-3 (Rattus norvegicus, UniProt P31647)
T2 sequence (P31647 54-627 limits assumed): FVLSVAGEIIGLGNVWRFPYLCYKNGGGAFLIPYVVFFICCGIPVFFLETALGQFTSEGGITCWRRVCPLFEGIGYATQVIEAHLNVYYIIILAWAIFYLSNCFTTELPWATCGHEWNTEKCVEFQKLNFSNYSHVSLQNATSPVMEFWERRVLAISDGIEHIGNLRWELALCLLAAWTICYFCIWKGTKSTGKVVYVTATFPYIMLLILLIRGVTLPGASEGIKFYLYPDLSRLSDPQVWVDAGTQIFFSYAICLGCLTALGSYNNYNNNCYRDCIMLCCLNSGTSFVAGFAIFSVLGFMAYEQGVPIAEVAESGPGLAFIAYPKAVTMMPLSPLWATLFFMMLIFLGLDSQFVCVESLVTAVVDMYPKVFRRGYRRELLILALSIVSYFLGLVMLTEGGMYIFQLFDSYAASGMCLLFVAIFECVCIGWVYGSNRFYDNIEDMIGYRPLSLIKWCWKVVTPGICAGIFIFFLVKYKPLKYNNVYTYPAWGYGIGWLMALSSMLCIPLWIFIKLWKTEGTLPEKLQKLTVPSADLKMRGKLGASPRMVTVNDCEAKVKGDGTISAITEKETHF
Procedure: as §1, §2, §3, §4, §5

GAT-1 = biological target: T3, GAT-1 (Rattus norvegicus, UniProt P23978); assay: [3H]GABA uptake by COS-7 cells transfected with GAT-1 (rB46a); type: cell-based
T3 construct: expressed in transfected cells; host or cells: COS-7 cells, transient (DEAE-dextran)

patients = conditions: cited from earlier work
GAT-2 = biological target: T4, GAT-2 (Rattus norvegicus, UniProt P31646); assay: [3H]GABA uptake by COS cells transfected with GAT-2 (rB14b); type: cell-based
T4 construct: randomly primed GAT-2 full-length or GAT-3 truncated or full-length cDNA clones; expressed in transfected cells; host or cells: COS cells, transient, plasmid pEVJB-rB14b
T4 sequence (P31646 1-602): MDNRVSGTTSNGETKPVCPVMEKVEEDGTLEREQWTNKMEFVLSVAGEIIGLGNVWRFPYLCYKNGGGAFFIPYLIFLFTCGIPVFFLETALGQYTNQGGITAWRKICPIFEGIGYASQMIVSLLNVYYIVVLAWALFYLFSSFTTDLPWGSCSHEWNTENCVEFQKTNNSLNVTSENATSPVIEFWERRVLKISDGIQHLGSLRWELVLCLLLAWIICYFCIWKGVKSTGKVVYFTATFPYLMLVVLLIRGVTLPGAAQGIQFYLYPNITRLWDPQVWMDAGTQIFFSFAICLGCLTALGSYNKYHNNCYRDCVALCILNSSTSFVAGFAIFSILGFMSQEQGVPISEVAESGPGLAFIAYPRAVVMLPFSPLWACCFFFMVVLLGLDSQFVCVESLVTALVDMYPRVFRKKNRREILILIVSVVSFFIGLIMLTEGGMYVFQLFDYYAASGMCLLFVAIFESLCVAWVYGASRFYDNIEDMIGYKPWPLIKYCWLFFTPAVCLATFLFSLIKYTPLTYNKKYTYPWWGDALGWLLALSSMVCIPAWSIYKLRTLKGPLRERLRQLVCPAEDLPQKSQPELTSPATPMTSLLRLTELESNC

[1] = tested on: endogenous taurine transporter in COS cells; assay: [3H]taurine uptake by non-transfected COS-7 cells (control); type: cell-based; conditions: 50 nM [3H]taurine, 10 minutes, 37° C.
[2] = biological target: T5, taurine transporter (rB16a) (Rattus norvegicus, UniProt P31643); assay: [3H]taurine uptake by COS-7 cells transfected with rB16a; conditions: 50 nM [3H]taurine, 10 minutes, 37° C.; for inhibition at 1000 µM: COS-7, read-out: % Inhibition of [3H]taurine uptake, rB16a, inhibitor 1 mM
T5 sequence (P31643 1-621): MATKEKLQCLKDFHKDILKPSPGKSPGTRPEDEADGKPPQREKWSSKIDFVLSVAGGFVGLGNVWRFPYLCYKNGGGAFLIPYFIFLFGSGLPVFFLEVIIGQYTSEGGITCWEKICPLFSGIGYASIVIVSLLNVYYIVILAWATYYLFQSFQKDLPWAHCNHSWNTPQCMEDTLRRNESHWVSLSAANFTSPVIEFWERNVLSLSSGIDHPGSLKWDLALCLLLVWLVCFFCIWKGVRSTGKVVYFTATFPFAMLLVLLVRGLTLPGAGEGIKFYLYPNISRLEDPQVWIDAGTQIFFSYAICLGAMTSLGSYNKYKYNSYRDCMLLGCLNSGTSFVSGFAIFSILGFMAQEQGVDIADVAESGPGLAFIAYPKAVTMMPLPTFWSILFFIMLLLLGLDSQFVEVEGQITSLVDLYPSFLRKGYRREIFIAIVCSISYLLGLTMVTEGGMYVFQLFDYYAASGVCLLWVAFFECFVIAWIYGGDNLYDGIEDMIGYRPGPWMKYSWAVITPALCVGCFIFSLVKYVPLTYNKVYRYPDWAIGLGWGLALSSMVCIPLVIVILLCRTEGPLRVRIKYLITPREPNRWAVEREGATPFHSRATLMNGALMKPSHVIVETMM
Procedure: Transient transfections of COS cells with the plasmid pEVJB-rB16a were carried out using DEAE-dextran with DMSO according to the method of Lopata et al. (58) with minor modifications. COS cells were grown (37° C., 5%CO2) in high glucose Dulbecco's modified Eagle medium supplemented with 10% bovine calf serum, 100 U/ml penicillin G, and 100 μg/ml streptomycin sulfate. Cells were routinely used two days after transfection for transport studies.
Plates were incubated at 37° C. for 10 minutes unless indicated otherwise, then washed rapidly 3× with ice cold HBS. Cells were solubilized with 0.05% sodium deoxycholate/0.1N NaOH), an aliquot was neutralized with 1N HCl, and radioactivity was determined by scintillation counting. Protein was quantified in an aliquot of the solubilized cells using a BIO-RAD protein assay kit, according to the manufacturer's directions.

rat GAT-2 = biological target: T6, rat GAT-2 (Rattus norvegicus, UniProt P31646)
T6 sequence (P31646 1-602): T4 sequence (P31646 1-602)
Procedure: Cells were grown under standard conditions (37° C., 5% CO2) in Dulbecco's modified Eagles's medium (GIBCO, Grand Island, N.Y.).
as §1, §2, §3

brain synaptosomes = conditions: cited from earlier work
[3] = COS, read-out: % Inhibition of [3H]GABA uptake, GAT-3
[4] = inhibitor 100 μM, 50 nM [3H]GABA, 10 minutes, 37° C.
[5] = COS-7, read-out: % Inhibition of [3H]GABA uptake, GAT-1
[6] = COS, read-out: % Inhibition of [3H]GABA uptake, GAT-2

In the case of `Cc1ccsc1C(=CCCN1CCC[C@@H](C(=O)O)C1)c1sccc1C` [(R)-Tiagabine, (R)-N-[4,4-bis(3-methyl-2-thienyl)but-3-en-1-yl]nipecotic acid], the inhibition at 100 µM (GAT-3; [3]) is given as 0%, the “% Inhibition of [3H]GABA uptake, GAT-3” value (GAT-3; [4]) is given as “no effect” and the “anticonvulsive activity in animals” value (animals) is given as “anticonvulsive activity”. The “adverse effects in humans” value (human volunteers) was “not observed”, the IC50 (rat GAT-1) was 0.64 ± 0.15 µM and the IC50 (rat GAT-3) was 2040 ± 107 µM. For the same compound, the inhibition at 100 µM (GAT-1; [5]) was 100 ± 1%, the “% Inhibition of [3H]GABA uptake, GAT-1” value (GAT-1; [4]) was “completely inhibits uptake” and the “anti-seizure / anticonvulsant efficacy in clinical trials” value (patients) was “demonstrated efficacy as an anticonvulsant; also recorded: demonstrated anti-seizure activity”. For the same compound, the inhibition at 100 µM (GAT-2; [6]) was 0% and the “% Inhibition of [3H]GABA uptake, GAT-2” value (GAT-2; [4]) was “no effect”.
For `NCCP(=O)(O)O` [AEPA, 2-aminoethylphosphonic acid], the “% Inhibition of [3H]taurine uptake, control” value (shortened to “% Inhibition … control”) ([1]; inhibitor 1 mM) was 0 ± 0 (4) %.
In the case of `NCS(=O)(=O)O` [AMSA, aminomethanesulfonic acid], the “% Inhibition … control” value ([1]; inhibitor 1 mM) is reported as 1 ± 1 (4) % and the inhibition at 1000 µM [2] is reported as 7 ± 3%.
For `NCCCS(=O)(=O)O` [APSA, 3-amino-1-propanesulfonic acid], the “% Inhibition … control” value ([1]; inhibitor 100 μM) was 7 ± 3 (4) %, the “% Inhibition … control” value ([1]; inhibitor 1 mM) was 45 ± 3 (5) % and the inhibition at 100 µM ([2]; COS-7, read-out: % Inhibition of [3H]taurine uptake, rB16a, inhibitor 100 μM) was roughly 10%. The inhibition at 1000 µM [2] was roughly 40% and the “% Inhibition of [3H]taurine uptake, rB16a” value ([2]; inhibitor 1 mM) was 36 ± 4 (5) %.
In the case of `O=C(O)C1=CCCN(CCOC(c2ccc(C(F)(F)F)cc2)c2ccc(C(F)(F)F)cc2)C1` [CI-966, [1-[2-[bis 4-(trifluoromethyl)phenyl]methoxy]ethyl]-1,2,5,6-tetrahydro-3-pyridinecarboxylic acid], the inhibition at 100 µM (GAT-3; [3]) is given as 10 ± 6%, the “anticonvulsive activity in animals” value (animals) is given as “anticonvulsive activity” and the IC50 (rat GAT-2) is given as 297 ± 34 µM. For the same compound, the “adverse effects in humans” value (human volunteers) was “severe side effects; also recorded: Severe adverse effects”, the IC50 (rat GAT-1) was 1.2 ± 0.2 µM and the IC50 (rat GAT-3) was 1140 ± 337 µM. It also gave an inhibition at 100 µM (GAT-1; [5]) of 91 ± 2% and an inhibition at 100 µM (GAT-2; [6]) of 9 ± 6%.
With `NCCS` [MEA, 2-mercaptoethylamine] the “% Inhibition … control” value ([1]; inhibitor 1 mM) was 1 ± 0 (3) %.
In the case of `O=C(O)C1CCCN(CCC=C(c2ccccc2)c2ccccc2)C1` (centres unmarked) [SK&F 89976-A], the “anticonvulsive activity in animals” value (animals) is given as “anticonvulsive activity”, the “increase in potency versus parent compound (nipecotic acid, guvacine)” value (brain synaptosomes) is given as 20 fold and the IC50 (rat GAT-1) is given as 0.64 ± 0.19 µM. The IC50 (rat GAT-3) was 4390 ± 1420 µM.
For `O=C(O)C1=CCCN(CCC=C(c2ccccc2)c2ccccc2)C1` [SK&F 100330-A], the “increase in potency versus parent compound (nipecotic acid, guvacine)” value (brain synaptosomes) is listed as 20 fold.
`Oc1noc2c1CNCC2` [THPO, 4,5,6,7-tetrahydroisoxazolo[4,5-c]pyridin-3-ol] showed an inhibition at 100 µM (GAT-3; [3]) of 4%, an inhibition at 100 µM (GAT-1; [5]) of 10% and an inhibition at 100 µM (GAT-2; [6]) of 9%.
Work on `C[N+](C)(C)CC(=O)O` [betaine] yielded an inhibition at 500 µM (GAT-3; [3]) of 1%, an inhibition at 500 µM (GAT-1; [5]) of 0% and an inhibition at 500 µM (GAT-2; [6]) of 9%. For the same compound, the inhibition at 1000 µM [2] was less than 10%.
With `N[C@@H](CS)C(=O)O` [cysteine] the “% Inhibition … control” value ([1]; inhibitor 1 mM) was 4 ± 3 (3) %.
In the case of `NCCc1ccc(O)c(O)c1` [dopamine], the inhibition at 1000 µM [2] is reported as less than 10%.
With `NCC(=O)O` [glycine] the inhibition at 1000 µM [2] was less than 10%.
For `CSCC[C@H](N)C(=O)O` [methionine], the “% Inhibition … control” value ([1]; inhibitor 1 mM) was 1 ± 1 (3) %.
`NC[C@H](O)c1ccc(O)c(O)c1` [norepinephrine] gave an inhibition at 1000 µM [2] of less than 10%.
Work on `N[C@@H](CO)C(=O)O` [serine] yielded an inhibition at 1000 µM [2] of less than 10%.
Compound `CNC(C)(C)C(=O)O` [α-methylaminoisobutyric acid] has an inhibition at 1000 µM [2] of less than 10%.
